# Assay results published in patent US20240228489A1, “POSITIVE ALLOSTERIC MODULATORS OF THE MUSCARINIC ACETYLCHOLINE RECEPTOR M1” (Vanderbilt University, priority 2021, published 2024).
# Tests used:
# human mAChR M1 [1] = biological target: T1, human mAChR M1 (Homo sapiens, UniProt P11229); test: mAChR M1 cell-based functional assay (calcium mobilization), agonist mode: compound alone, Emax relative to acetylcholine maximum; settings: for Agonist Activity Human M1 EC50 / EC50: human mAChR M1; for Emax: relative to the maximum for acetylcholine
# T1 sequence (P11229 1-460): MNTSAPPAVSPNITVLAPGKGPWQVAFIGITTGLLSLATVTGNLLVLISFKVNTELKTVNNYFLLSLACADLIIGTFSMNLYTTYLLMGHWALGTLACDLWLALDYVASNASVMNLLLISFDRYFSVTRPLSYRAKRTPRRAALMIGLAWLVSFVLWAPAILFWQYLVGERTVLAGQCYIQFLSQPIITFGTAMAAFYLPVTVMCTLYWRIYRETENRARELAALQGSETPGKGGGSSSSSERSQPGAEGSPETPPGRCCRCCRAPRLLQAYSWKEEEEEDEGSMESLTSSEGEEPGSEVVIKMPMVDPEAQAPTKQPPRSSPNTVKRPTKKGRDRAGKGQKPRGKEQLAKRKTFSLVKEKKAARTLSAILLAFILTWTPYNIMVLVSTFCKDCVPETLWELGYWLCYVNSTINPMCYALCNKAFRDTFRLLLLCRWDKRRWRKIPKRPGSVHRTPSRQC
# Summary of the method: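 Agonist activity is the concentration-dependent rise in intracellular calcium (Fluo-4, 1 Hz read) after compound addition, measured before any acetylcholine was added, in stable hM1 CHO-K1 cells. Curves were 11-point, 1:3 dilutions fitted by four-parameter logistic. Emax is given as a fraction of maximal acetylcholine response.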
# human mAChR M1 [2] = biological target: T1, human mAChR M1; test: mAChR M1 cell-based functional assay (calcium mobilization), PAM mode: increase in the EC20 acetylcholine response
# Summary of the method: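 PAM readout is the concentration-dependent rise in the EC20 acetylcholine calcium signal, fitted to a four-parameter logistic (EC50, Emax). Compounds were preincubated from 4 s before ACh at 144 s (EC20) and 230 s (EC80). hM1-expressing CHO-K1 cells loaded with Fluo-4, FDSS ratio read.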
SMILES,Agonist Activity Human M1 EC50 (human mAChR M1 [1]),Emax (human mAChR M1 [1]) [%],EC50 (human mAChR M1 [2]) [nM],Emax (human mAChR M1 [2]) [%],EC50 (human mAChR M1 [1]) [nM]
"[2H]C1([2H])c2ncccc2C(=O)N1Cc1c(F)cc(-c2ccc3nn(C([2H])([2H])[2H])cc3c2)cc1F [Compound 100, 6-(2,6-difluoro-4-(2-(methyl-d3)-2H-indazol-5-yl)benzyl)-6,7-dihydro-5H-pyrrolo[3,4-b]pyridin-5-one-7,7-d2]",Inactive,6,214,85,
"[2H]C1([2H])c2ncccc2C(=O)N1Cc1c(F)cc(-c2ccnc3nn(C)cc23)cc1Cl [Compound 165, 6-(2-chloro-6-fluoro-4-(2-methyl-2H-pyrazolo[3,4-b]pyridin-4-yl)benzyl)-6,7-dihydro-5H-pyrrolo[3,4-b]pyridin-5-one-7,7-d2]",,16,643,93,≥ 10000
"[2H]C1([2H])c2ncccc2C(=O)N1Cc1ccc(-c2cccc3nn(C)cc23)cc1C [Compound 29, 6-(2-methyl-4-(2-methyl-2H-indazol-4-yl)benzyl)-6,7-dihydro-5H-pyrrolo[3,4-b]pyridin-5-one-7,7-d2]",,33,632,81,7860
"[2H]C1([2H])c2ncccc2C(=O)N1Cc1c(F)cc(-c2ccc(C)c3c2cnn3C([2H])([2H])[2H])cc1F [Compound 70, 6-(2,6-difluoro-4-(7-methyl-1-(methyl-d3)-1H-indazol-4-yl)benzyl)-6,7-dihydro-5H-pyrrolo[3,4-b]pyridin-5-one-7,7-d2]",Inactive,2,1220,65,
"[2H]C1([2H])c2ncccc2C(=O)N1Cc1c(F)cc(-c2cc3cn(C)nc3cc2F)cc1F [Compound 4, 6-(2,6-difluoro-4-(6-fluoro-2-methyl-2H-indazol-5-yl)benzyl)-6,7-dihydro-5H-pyrrolo[3,4-b]pyridin-5-one-7,7-d2]",Inactive,2,1060,48,
"[2H]C1([2H])c2ncccc2C(=O)N1Cc1ccc(-c2ccc3c(cnn3C)c2)cc1F [Compound 10, 6-(2-fluoro-4-(1-methyl-1H-indazol-5-yl)benzyl)-6,7-dihydro-5H-pyrrolo[3,4-b]pyridin-5-one-7,7-d2]",Inactive,4,1460,62,
"[2H]C1([2H])c2ncccc2C(=O)N1Cc1c(F)cc(-c2cc(F)cc3c2cnn3C([2H])([2H])[2H])cc1F [Compound 247, 6-(2,6-difluoro-4-(6-fluoro-1-(methyl-d3)-1H-indazol-4-yl)benzyl)-6,7-dihydro-5H-pyrrolo[3,4-b]pyridin-5-one-7,7-d2]",Inactive,2,> 10000,29,
"[2H]C1([2H])c2ncccc2C(=O)N1Cc1c(F)cc(-c2cc(F)c(Cl)c3c2cnn3C([2H])([2H])[2H])cc1F [Compound 249, 6-(4-(7-chloro-6-fluoro-1-(methyl-d3)-1H-indazol-4-yl)-2,6-difluorobenzyl)-6,7-dihydro-5H-pyrrolo[3,4-b]pyridin-5-one-7,7-d2]",Inactive,14,> 10000,20,
"[2H]C1([2H])c2ncccc2C(=O)N1Cc1c(F)cc(-c2cccc3nn(C([2H])([2H])[2H])cc23)cc1F [Compound 31, 6-(2,6-Difluoro-4-(2-(methyl-d3)-2H-indazol-4-yl)benzyl)-6,7-dihydro-5H-pyrrolo[3,4-b]pyridin-5-one-7,7-d2]",,28,263,84,8600
"[2H]C([2H])([2H])Oc1ccc(-c2ccc(CN3C(=O)c4cccnc4C3([2H])[2H])c(F)c2)c2cn(C)nc12 [Compound 107, 6-(2-fluoro-4-(7-(methoxy-d3)-2-methyl-2H-indazol-4-yl)benzyl)-6,7-dihydro-5H-pyrrolo[3,4-b]pyridin-5-one-7,7-d2]",,16,227,74,5460
"[2H]C1([2H])c2ncccc2C(=O)N1Cc1c(F)cc(-c2ccc3nn(C)cc3c2)cc1F [Compound 8, 6-(2,6-difluoro-4-(2-methyl-2H-indazol-5-yl)benzyl)-6,7-dihydro-5H-pyrrolo[3,4-b]pyridin-5-one-7,7-d^2]",Inactive,4,639,62,
"[2H]C1([2H])c2ncccc2C(=O)N1Cc1c(F)cc(-c2cn(C)c(=O)c3c2cnn3C([2H])([2H])[2H])cc1F [Compound 92, 4-(3,5-difluoro-4-((5-oxo-5,7-dihydro-6H-pyrrolo[3,4-b]pyridin-6-yl-7,7-d2)methyl)phenyl)-6-methyl-1-(methyl-d3)-1,6-dihydro-7H-pyrazolo[3,4-c]pyridin-7-one]",Inactive,2,2400,54,
"[2H]C1([2H])c2ncccc2C(=O)N1Cc1ccc(-c2cnc3nn(C)cc3c2)cc1 [Compound 13, 6-(4-(2-methyl-2H-pyrazolo[3,4-b]pyridin-5-yl)benzyl)-6,7-dihydro-5H-pyrrolo[3,4-b]pyridin-5-one-7,7-d2]",Inactive,3,5190,75,

# Now from value to molecule:
Agonist Activity Human M1 EC50 (human mAChR M1 [1]),Emax (human mAChR M1 [1]) [%],EC50 (human mAChR M1 [2]) [nM],Emax (human mAChR M1 [2]) [%],EC50 (human mAChR M1 [1]) [nM],SMILES
Inactive,9,469,77,,"[2H]C1([2H])c2ncccc2C(=O)N1Cc1c(F)cc(-c2ccc(OC(F)F)c3nn(C)cc23)cc1F [Compound 102, 6-(4-(7-(difluoromethoxy)-2-methyl-2H-indazol-4-yl)-2,6-difluorobenzyl)-6,7-dihydro-5H-pyrrolo[3,4-b]pyridin-5-one-7,7-d2]"
,63,815,75,2560,"[2H]C1([2H])c2ncccc2C(=O)N1Cc1c(F)cc(-c2ccc(OCCOC)c3nn(C)cc23)cc1C1CC1 [Compound 203, 6-(2-cyclopropyl-6-fluoro-4-(7-(2-methoxyethoxy)-2-methyl-2H-indazol-4-yl)benzyl)-6,7-dihydro-5H-pyrrolo[3,4-b]pyridin-5-one-7,7-d2]"
,28,245,74,8420,"[2H]C1([2H])c2ncccc2C(=O)N1Cc1c(F)cc(-c2ccc(O[C@H]3CCOC3)c3nn(C)cc23)cc1F [Compound 136, (S)-6-(2,6-difluoro-4-(2-methyl-7-((tetrahydrofuran-3-yl)oxy)-2H-indazol-4-yl)benzyl)-6,7-dihydro-5H-pyrrolo[3,4-b]pyridin-5-one-7,7-d2]"
,13,535,86,≥ 10000,"[2H]C1([2H])c2ncccc2C(=O)N1Cc1c(F)cc(-c2ccc(OC3CC3)c3nn(C([2H])([2H])[2H])cc23)cc1F [Compound 183, 6-(4-(7-cyclopropoxy-2-(methyl-d3)-2H-indazol-4-yl)-2,6-difluorobenzyl)-6,7-dihydro-5H-pyrrolo[3,4-b]pyridin-5-one-7,7-d2]"
,17,1090,77,≥ 10000,"[2H]C1([2H])c2ncccc2C(=O)N1Cc1ccc(-c2ccc(OCCOC3CC3)c3nn(C)cc23)cc1F [Compound 154, 6-(4-(7-(2-cyclopropoxyethoxy)-2-methyl-2H-indazol-4-yl)-2-fluorobenzyl)-6,7-dihydro-5H-pyrrolo[3,4-b]pyridin-5-one-7,7-d2]"
,44,429,81,3240,"[2H]C1([2H])c2ncccc2C(=O)N1Cc1c(F)cc(-c2ccc(OC3CC3)c3nn(C)cc23)cc1C1CC1 [Compound 202, 6-(4-(7-cyclopropoxy-2-methyl-2H-indazol-4-yl)-2-cyclopropyl-6-fluorobenzyl)-6,7-dihydro-5H-pyrrolo[3,4-b]pyridin-5-one-7,7-d2]"
,32,243,74,8270,"[2H]C1([2H])c2ncccc2C(=O)N1Cc1c(F)cc(-c2ccc(OC3CC3)c3nn(C)cc23)cc1F [Compound 124, 6-(4-(7-cyclopropoxy-2-methyl-2H-indazol-4-yl)-2,6-difluorobenzyl)-6,7-dihydro-5H-pyrrolo[3,4-b]pyridin-5-one-7,7-d2]"
Inactive,2,1700,72,,"[2H]C1([2H])c2ncccc2C(=O)N1Cc1c(F)cc(-c2cc(OC)cc3nn(C)cc23)cc1F [Compound 90, 6-(2,6-difluoro-4-(6-methoxy-2-methyl-2H-indazol-4-yl)benzyl)-6,7-dihydro-5H-pyrrolo[3,4-b]pyridin-5-one-7,7-d2]"
,26,405,78,7520,"[2H]C1([2H])c2ncccc2C(=O)N1Cc1c(F)cc(-c2ccc(OCC3CCO3)c3nn(C)cc23)cc1F (stereo not shown) [Compound 135, 6-(2,6-difluoro-4-(2-methyl-7-(oxetan-2-ylmethoxy)-2H-indazol-4-yl)benzyl)-6,7-dihydro-5H-pyrrolo[3,4-b]pyridin-5-one-7,7-d2]"
